Data: patent US20230072860A1, “ISOXAZOLINE OXIME FORMATE COMPOUND, PREPARATION METHOD THEREFOR, HERBICIDAL COMPOSITION AND USE THEREOF” (QINGDAO KINGAGROOT CHEMICAL COMPOUND CO., LTD., priority 2020, published 2023)

Assays:
Assay in all cases: Experiment on weeding effect in post-emergence stage
Format in all cases: in vivo
Conditions in all cases: dose 15 g a.i./ha, fresh weight control rate level
[1] = system: Galium aparine
Excerpt: (§1) Experiment on weeding effect in post-emergence stage:
(§2) Monocotyledonous and dicotyledonous weed seeds (Descurainia sophia, Capsella bursa-pastoris, Abutilon theophrasti, Galium aparine, Stellaria media, Lithospermum arvense, Rorippa indica, Alopecurus aequalis, Alopecurus japonicus, Beckmannia syzigachne, Sclerochloa dura, Conyza Canadensis, Phleum paniculatum, Veronica didyma Tenore, Eleusine indica, Bromus japonicus, Aegilops tauschii, Phalaris arundinacea, Amaranthus retroflexus, Chenopodium album, Commelina communis, Sonchus arvensis, Convolvulus arvensis, Cirsium setosum, Solanum nigrum, Acalypha australis, Digitaria sanguinalis, Echinochloa crusgalli, Setaria viridis, Setaria glauca, Leptochloa chinensis, Monochoria vaginalis, Sagittaria trolia, Scirpus juncoides, Cyperus rotundus, Cyperus iria, Cyperus difformis, Elmbristylis, Portulaca oleracea, Xanthium sibiricum, Pharbitis nil) and major crop seeds (wheat, corn, rice, soybean, cotton, oilseed rape, millet, sorghum, potato, sesame, ricinus) were placed in plastic pots filled with soil, then covered with 0.5-2 cm of soil, allowed to grow in a good greenhouse environment. After 2 weeks of sowing, the test plants were treated in the 2-3 leaf stage. The tested compounds of the present invention were respectively dissolved in acetone, then added with Tween 80 and 1.5 liter/ha of emulsifiable concentrate of methyl oleate as synergist, diluted with a certain amount of water to obtain a solution with a certain concentration, and sprayed with a spray tower onto the plants. After the application, the plants were cultured for 3 weeks in the greenhouse, and then the experimental results of the weeding were counted. The doses of the used compounds were 500, 250, 125, 60, 15 g a.i./ha, and the averages were obtained by repeating for three times.

[2] = system: Amaranthus retroflexus
Excerpt: as §1, §2

[3] = system: Eleusine indica
Excerpt: as §1, §2

[4] = system: Setaria viridis
Excerpt: as §1, §2

[5] = system: Abutilon theophrasti
Excerpt: as §1, §2

[6] = system: Veronica didyma Tenore
Excerpt: as §1, §2

[7] = system: Echinochloa crusgalli
Excerpt: as §1, §2

[8] = system: Leptochloa chinensis
Excerpt: as §1, §2

[9] = system: Digitaria sanguinalis
Excerpt: as §1, §2

Row | Structure (SMILES) | weeding effect in post-emergence stage, Galium aparine (level) [1] | weeding effect in post-emergence stage, Amaranthus retroflexus (level) [2] | weeding effect in post-emergence stage, Eleusine indica (level) [3] | weeding effect in post-emergence stage, Setaria viridis (level) [4] | weeding effect in post-emergence stage, Abutilon theophrasti (level) [5] | weeding effect in post-emergence stage, Veronica didyma Tenore (level) [6] | weeding effect in post-emergence stage, Echinochloa crusgalli (level) [7] | weeding effect in post-emergence stage, Leptochloa chinensis (level) [8] | weeding effect in post-emergence stage, Digitaria sanguinalis (level) [9]
1 | CC(C)=NOC(=O)C1(C)CC(c2cc(-n3c(=O)n(C)c(=S)n(C)c3=S)c(F)cc2Cl)=NO1 (stereo not drawn) [Compound 56] | 5 (Level 5: growth control rate is above 85%) | 5 (Level 5: growth control rate is above 85%) | 5 (Level 5: growth control rate is above 85%) | 5 (Level 5: growth control rate is above 85%) | 5 (Level 5: growth control rate is above 85%) | 5 (Level 5: growth control rate is above 85%) | 5 (Level 5: growth control rate is above 85%) | 5 (Level 5: growth control rate is above 85%) | 5 (Level 5: growth control rate is above 85%)
2 | CC/C(C)=N/OC(=O)C1(C)CC(c2cc(-n3c(=O)n(C)c(=S)n(C)c3=S)c(F)cc2Cl)=NO1 (stereo not drawn) [Compound 57] | 5 (Level 5: growth control rate is above 85%) | 5 (Level 5: growth control rate is above 85%) | 5 (Level 5: growth control rate is above 85%) | 5 (Level 5: growth control rate is above 85%) | 5 (Level 5: growth control rate is above 85%) | 5 (Level 5: growth control rate is above 85%) | 5 (Level 5: growth control rate is above 85%) | 5 (Level 5: growth control rate is above 85%) | 5 (Level 5: growth control rate is above 85%)
3 | C/C(=N\OC(=O)C1(C)CC(c2cc(-n3c(=O)n(C)c(=S)n(C)c3=S)c(F)cc2Cl)=NO1)C(C)C (stereo not drawn) [Compound 58] | 5 (Level 5: growth control rate is above 85%) | 5 (Level 5: growth control rate is above 85%) | 5 (Level 5: growth control rate is above 85%) | 5 (Level 5: growth control rate is above 85%) | 5 (Level 5: growth control rate is above 85%) | 5 (Level 5: growth control rate is above 85%) | 5 (Level 5: growth control rate is above 85%) | 5 (Level 5: growth control rate is above 85%) | 5 (Level 5: growth control rate is above 85%)
4 | C/C(=N\OC(=O)C1(C)CC(c2cc(-n3c(=O)n(C)c(=S)n(C)c3=S)c(F)cc2Cl)=NO1)C(C)(C)C (stereo not drawn) [Compound 59] | 5 (Level 5: growth control rate is above 85%) | 5 (Level 5: growth control rate is above 85%) | 5 (Level 5: growth control rate is above 85%) | 5 (Level 5: growth control rate is above 85%) | 5 (Level 5: growth control rate is above 85%) | 5 (Level 5: growth control rate is above 85%) | 5 (Level 5: growth control rate is above 85%) | 5 (Level 5: growth control rate is above 85%) | 5 (Level 5: growth control rate is above 85%)
5 | CCC(CC)=NOC(=O)C1(C)CC(c2cc(-n3c(=O)n(C)c(=S)n(C)c3=S)c(F)cc2Cl)=NO1 (stereo not drawn) [Compound 60] | 5 (Level 5: growth control rate is above 85%) | 5 (Level 5: growth control rate is above 85%) | 5 (Level 5: growth control rate is above 85%) | 5 (Level 5: growth control rate is above 85%) | 5 (Level 5: growth control rate is above 85%) | 5 (Level 5: growth control rate is above 85%) | 5 (Level 5: growth control rate is above 85%) | 5 (Level 5: growth control rate is above 85%) | 5 (Level 5: growth control rate is above 85%)
6 | C/C(=N\OC(=O)C1(C)CC(c2cc(-n3c(=O)n(C)c(=S)n(C)c3=S)c(F)cc2Cl)=NO1)C1CC1 (stereo not drawn) [Compound 61] | 5 (Level 5: growth control rate is above 85%) | 5 (Level 5: growth control rate is above 85%) | 5 (Level 5: growth control rate is above 85%) | 5 (Level 5: growth control rate is above 85%) | 5 (Level 5: growth control rate is above 85%) | 5 (Level 5: growth control rate is above 85%) | 5 (Level 5: growth control rate is above 85%) | 5 (Level 5: growth control rate is above 85%) | 5 (Level 5: growth control rate is above 85%)
7 | CCO/C(C)=N/OC(=O)C1(C)CC(c2cc(-n3c(=O)n(C)c(=S)n(C)c3=S)c(F)cc2Cl)=NO1 (stereo not drawn) [Compound 67] | 5 (Level 5: growth control rate is above 85%) | 5 (Level 5: growth control rate is above 85%) | 5 (Level 5: growth control rate is above 85%) | 5 (Level 5: growth control rate is above 85%) | 5 (Level 5: growth control rate is above 85%) | 5 (Level 5: growth control rate is above 85%) | 5 (Level 5: growth control rate is above 85%) | 5 (Level 5: growth control rate is above 85%) | 5 (Level 5: growth control rate is above 85%)
